13 compounds from ChEMBL document CHEMBL5465560, “Selectivity Literature for EUbOPEN Chemogenomic Library” (2024) can be followed below.

The target of assay [1] is Serine/threonine-protein kinase PAK 3 (Homo sapiens) (UniProt O75914). Put plainly: Selectivity interaction (Upstate Kinase Profiler service (Millipore)) EUB0000056c PAK3. To be noted: at 1 µM.
Assay [2] concerns the target PAS domain-containing serine/threonine-protein kinase (Homo sapiens) (UniProt Q96RG2). Briefly: Selectivity interaction (ProQinase) EUB0000171b PASK.
In assay [3] the target is T1, Serine/threonine-protein kinase STK11 (Homo sapiens) (UniProt Q15831).
T1 sequence (whole entry): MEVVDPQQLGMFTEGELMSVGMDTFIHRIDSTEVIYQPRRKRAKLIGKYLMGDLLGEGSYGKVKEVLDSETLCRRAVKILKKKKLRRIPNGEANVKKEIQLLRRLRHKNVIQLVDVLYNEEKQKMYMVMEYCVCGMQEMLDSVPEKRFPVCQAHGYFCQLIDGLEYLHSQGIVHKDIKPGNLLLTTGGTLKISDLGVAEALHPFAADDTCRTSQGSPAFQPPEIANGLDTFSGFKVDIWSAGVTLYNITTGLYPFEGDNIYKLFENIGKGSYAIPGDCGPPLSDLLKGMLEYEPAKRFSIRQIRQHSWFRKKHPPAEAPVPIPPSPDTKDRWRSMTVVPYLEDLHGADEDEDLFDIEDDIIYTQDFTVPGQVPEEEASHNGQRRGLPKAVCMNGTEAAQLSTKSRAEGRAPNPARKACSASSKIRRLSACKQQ
Briefly: Selectivity interaction (Ambit KINOMEscan and KiNATiv profiling in Jurkat cells) EUB0000090b STK11. Format: cell-based. To be noted: at 1 µM.

The target of assay [4] is cAMP-dependent protein kinase catalytic subunit beta (Homo sapiens) (UniProt P22694). Put plainly: Selectivity interaction (KinomeScan (DiscoverX)) EUB0001079a PRKACB. To be noted: at 1 µM.
Assay [5] addresses T2, Serine/threonine-protein kinase MAK (Homo sapiens) (UniProt P20794).
T2 sequence (whole entry): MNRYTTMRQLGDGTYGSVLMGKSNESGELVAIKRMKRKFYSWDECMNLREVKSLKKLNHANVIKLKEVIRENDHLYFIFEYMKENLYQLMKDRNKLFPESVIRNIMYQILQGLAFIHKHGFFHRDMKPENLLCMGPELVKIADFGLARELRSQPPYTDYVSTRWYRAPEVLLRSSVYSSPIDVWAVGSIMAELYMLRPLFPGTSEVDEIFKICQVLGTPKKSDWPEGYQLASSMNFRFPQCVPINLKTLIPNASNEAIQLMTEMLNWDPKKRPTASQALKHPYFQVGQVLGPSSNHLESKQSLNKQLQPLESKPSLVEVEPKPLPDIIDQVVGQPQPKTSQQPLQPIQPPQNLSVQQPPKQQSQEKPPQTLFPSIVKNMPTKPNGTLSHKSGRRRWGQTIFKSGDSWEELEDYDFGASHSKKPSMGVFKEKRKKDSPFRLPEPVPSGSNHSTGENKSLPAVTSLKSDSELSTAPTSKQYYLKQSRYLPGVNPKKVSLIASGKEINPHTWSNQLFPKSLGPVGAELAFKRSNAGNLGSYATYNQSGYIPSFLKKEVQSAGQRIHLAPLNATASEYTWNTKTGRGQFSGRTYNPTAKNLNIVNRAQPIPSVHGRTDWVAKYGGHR
Briefly: Selectivity interaction (KinomeScan (DiscoverX)) EUB0001079a MAK. To be noted: at 1 µM.

The target of assay [6] is Cyclin-dependent kinase 5 (Homo sapiens, UniProt Q00535). Briefly: Selectivity interaction (KinomeScan (DiscoverX)) EUB0001049a CDK5. To be noted: at 1 µM.
Chain of Cyclin-dependent kinase 5 (Q00535 whole entry, looked up): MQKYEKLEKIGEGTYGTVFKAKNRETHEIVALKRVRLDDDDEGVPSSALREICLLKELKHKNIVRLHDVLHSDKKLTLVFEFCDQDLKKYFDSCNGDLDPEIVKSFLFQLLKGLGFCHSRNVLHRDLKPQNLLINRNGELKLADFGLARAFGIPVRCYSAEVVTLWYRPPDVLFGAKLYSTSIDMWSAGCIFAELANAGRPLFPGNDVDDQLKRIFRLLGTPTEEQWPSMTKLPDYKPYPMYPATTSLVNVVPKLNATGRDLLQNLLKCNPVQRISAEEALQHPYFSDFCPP
Assay [7] has as its target Serine/threonine-protein kinase 24 (Homo sapiens) (UniProt Q9Y6E0). Briefly: Selectivity interaction (KinomeScan (DiscoverX)) EUB0000655a STK24. To be noted: at 10 µM.
Assay [8] concerns the target Vasopressin V1a receptor (Homo sapiens) (UniProt P37288). Put plainly: Selectivity interaction (Panel of kinases, GPCRs, ion channels and transporters (enzymatic assay)) EUB0000223bCl AVPR1A.
The target of assay [9] is STE20-like serine/threonine-protein kinase (Homo sapiens, UniProt Q9H2G2). Briefly: Selectivity interaction (LanthaScreen Eu Kinase Binding Assay) EUB0001632a SLK. To be noted: at 10 µM.
Chain of STE20-like serine/threonine-protein kinase (Q9H2G2 whole entry, looked up): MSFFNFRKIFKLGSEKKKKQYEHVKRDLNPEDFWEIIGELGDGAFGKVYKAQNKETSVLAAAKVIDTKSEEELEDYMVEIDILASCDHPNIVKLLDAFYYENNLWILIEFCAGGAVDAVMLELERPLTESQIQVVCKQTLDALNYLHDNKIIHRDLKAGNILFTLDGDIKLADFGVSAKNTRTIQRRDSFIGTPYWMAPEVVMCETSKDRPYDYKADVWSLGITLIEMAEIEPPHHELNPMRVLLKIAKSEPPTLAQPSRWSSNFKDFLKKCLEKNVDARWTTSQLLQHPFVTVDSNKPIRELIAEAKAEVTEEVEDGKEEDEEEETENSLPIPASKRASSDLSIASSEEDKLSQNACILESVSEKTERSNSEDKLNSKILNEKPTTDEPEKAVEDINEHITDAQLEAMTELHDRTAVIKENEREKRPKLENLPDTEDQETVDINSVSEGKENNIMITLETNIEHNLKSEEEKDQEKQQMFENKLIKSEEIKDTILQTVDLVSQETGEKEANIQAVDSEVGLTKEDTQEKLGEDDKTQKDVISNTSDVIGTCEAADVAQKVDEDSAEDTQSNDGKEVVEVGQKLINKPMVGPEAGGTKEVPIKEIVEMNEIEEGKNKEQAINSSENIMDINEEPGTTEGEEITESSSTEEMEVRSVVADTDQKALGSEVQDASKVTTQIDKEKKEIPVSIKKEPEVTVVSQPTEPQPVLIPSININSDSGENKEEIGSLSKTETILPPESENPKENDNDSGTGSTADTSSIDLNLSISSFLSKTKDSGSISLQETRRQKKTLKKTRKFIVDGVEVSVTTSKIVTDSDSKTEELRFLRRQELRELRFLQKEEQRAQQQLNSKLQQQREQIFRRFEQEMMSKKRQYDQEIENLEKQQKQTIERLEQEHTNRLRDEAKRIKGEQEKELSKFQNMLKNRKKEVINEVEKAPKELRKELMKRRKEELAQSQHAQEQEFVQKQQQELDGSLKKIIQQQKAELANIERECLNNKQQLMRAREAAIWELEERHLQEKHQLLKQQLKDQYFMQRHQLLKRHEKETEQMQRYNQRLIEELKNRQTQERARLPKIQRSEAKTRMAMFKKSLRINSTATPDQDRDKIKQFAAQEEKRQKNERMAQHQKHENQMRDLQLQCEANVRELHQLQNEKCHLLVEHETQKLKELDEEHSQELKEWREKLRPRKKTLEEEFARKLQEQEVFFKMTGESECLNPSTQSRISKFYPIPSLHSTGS
The target in assay [10] is T3, Calcium/calmodulin-dependent protein kinase type IV (Homo sapiens) (UniProt Q16566).
T3 sequence (whole entry): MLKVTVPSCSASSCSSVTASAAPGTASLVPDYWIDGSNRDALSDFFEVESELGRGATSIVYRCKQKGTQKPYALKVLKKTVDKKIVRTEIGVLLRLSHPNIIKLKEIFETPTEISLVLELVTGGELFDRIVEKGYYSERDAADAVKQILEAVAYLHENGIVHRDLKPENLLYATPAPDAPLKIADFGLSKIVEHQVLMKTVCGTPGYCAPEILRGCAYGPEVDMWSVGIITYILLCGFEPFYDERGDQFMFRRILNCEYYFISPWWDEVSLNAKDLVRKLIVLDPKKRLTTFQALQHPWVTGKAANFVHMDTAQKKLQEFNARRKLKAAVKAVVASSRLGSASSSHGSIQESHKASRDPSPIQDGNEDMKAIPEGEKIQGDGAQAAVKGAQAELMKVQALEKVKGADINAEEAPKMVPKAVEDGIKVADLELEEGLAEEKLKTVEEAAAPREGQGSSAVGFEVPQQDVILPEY
Put plainly: Selectivity interaction (SelectScreen profiling (Invitrogen)) EUB0000607a CAMK4. To be noted: at 2 µM.

For assay [11], the system named is Epidermal growth factor receptor (Homo sapiens), P00533 [UNDEFINED MUTATION]. Briefly: Selectivity interaction (KinomeScan (DiscoverX)) EUB0000607a EGFR. To be noted: at 10 µM.
Chain of Epidermal growth factor receptor (Homo sapiens), P00533 [UNDEFINED MUTATION] (P00533 whole entry, looked up, change not shown): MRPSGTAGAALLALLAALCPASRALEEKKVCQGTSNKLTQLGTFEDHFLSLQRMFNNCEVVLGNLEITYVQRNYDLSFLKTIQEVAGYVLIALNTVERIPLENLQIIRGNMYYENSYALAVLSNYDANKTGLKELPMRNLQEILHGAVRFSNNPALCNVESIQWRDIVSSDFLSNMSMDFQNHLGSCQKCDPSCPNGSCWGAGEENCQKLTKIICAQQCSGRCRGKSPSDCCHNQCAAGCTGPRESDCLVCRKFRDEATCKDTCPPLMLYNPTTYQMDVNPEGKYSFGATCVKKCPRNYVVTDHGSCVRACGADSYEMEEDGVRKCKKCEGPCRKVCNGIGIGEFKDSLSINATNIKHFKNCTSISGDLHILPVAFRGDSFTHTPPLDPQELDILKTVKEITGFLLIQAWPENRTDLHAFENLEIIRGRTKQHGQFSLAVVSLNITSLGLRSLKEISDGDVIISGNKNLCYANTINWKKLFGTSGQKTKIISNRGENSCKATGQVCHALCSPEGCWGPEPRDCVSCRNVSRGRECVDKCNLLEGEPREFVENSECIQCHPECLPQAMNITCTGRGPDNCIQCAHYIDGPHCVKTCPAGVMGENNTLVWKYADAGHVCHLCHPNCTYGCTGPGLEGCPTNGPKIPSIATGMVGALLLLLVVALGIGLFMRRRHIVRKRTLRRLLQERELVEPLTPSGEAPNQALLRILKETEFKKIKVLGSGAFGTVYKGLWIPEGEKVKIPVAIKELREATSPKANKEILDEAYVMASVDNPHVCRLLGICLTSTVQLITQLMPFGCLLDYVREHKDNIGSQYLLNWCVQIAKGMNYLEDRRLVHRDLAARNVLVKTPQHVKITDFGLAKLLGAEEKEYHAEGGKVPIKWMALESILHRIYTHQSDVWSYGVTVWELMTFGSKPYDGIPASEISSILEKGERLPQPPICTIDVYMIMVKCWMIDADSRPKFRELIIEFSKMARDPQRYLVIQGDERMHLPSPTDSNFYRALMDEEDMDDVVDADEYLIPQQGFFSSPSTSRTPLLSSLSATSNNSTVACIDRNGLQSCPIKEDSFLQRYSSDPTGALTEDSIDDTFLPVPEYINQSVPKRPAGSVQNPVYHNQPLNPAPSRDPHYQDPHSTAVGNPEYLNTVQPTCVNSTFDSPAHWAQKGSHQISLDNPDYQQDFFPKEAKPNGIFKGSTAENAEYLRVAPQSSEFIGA
Assay [12] deals with Serine/threonine-protein kinase SMG1 (Homo sapiens) (UniProt Q96Q15). Put plainly: Selectivity interaction (ActivX KiNativ screen (kinase selectivity in THP-1 cell lysates)) EUB0000639a SMG1. It counts as subcellular. To be noted: lysate, at 5 µM.
Assay [13] has as its target Serine/threonine-protein kinase 26 (Homo sapiens, UniProt Q9P289). Put plainly: Selectivity interaction (ActivX KiNativ screen (kinase selectivity in THP-1 cell lysates)) EUB0000639a STK26. It counts as subcellular. To be noted: lysate, at 0.01 µM.
Assay [14] deals with Serine/threonine-protein kinase PLK3 (Homo sapiens, UniProt Q9H4B4).
Assay [15] has as its target Protein polybromo-1 (Homo sapiens) (UniProt Q86U86). Briefly: Selectivity interaction (Human bromodomain panel (DSF assay)) EUB0000233b PBRM1.
For assay [16], the target named is Mitogen-activated protein kinase kinase kinase kinase 1 (Homo sapiens) (UniProt Q92918). Put plainly: Selectivity interaction (KinomeScan (DiscoverX)) EUB0001619a MAP4K1. To be noted: at 1 µM.

Chain of PAS domain-containing serine/threonine-protein kinase (Homo sapiens) (Q96RG2 whole entry, the tested form may be a part): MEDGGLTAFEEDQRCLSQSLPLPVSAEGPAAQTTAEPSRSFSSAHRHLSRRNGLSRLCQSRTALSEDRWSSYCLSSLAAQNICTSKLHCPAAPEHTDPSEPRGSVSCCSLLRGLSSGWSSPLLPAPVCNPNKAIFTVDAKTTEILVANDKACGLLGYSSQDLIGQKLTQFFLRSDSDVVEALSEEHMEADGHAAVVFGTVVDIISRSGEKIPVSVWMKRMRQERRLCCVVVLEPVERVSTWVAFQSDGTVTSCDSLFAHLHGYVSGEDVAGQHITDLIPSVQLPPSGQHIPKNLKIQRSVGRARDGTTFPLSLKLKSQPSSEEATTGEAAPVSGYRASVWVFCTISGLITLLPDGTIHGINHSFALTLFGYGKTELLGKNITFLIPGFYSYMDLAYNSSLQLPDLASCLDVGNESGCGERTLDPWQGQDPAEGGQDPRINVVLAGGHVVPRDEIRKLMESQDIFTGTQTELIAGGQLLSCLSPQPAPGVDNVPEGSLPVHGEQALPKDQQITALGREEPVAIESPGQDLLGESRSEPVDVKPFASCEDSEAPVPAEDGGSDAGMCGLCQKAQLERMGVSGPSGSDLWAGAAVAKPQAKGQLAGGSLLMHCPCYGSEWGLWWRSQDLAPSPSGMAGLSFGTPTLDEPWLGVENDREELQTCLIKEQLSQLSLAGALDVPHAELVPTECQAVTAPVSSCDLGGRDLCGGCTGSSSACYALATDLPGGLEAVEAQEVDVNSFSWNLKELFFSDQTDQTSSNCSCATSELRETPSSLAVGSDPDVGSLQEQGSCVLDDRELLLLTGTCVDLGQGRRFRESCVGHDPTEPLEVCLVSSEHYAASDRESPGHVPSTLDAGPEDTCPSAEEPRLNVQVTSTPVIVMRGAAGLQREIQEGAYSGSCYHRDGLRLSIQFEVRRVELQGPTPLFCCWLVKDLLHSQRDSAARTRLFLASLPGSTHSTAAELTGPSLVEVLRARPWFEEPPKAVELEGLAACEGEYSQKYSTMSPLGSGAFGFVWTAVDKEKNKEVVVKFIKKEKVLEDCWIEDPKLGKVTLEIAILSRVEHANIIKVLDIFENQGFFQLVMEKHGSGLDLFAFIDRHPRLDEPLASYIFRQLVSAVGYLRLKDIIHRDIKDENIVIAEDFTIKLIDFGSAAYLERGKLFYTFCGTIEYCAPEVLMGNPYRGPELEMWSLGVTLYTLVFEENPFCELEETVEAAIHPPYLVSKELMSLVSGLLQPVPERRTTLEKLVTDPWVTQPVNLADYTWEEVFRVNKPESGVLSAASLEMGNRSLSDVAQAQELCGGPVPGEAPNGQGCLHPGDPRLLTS
Chain of Serine/threonine-protein kinase 24 (Homo sapiens) (Q9Y6E0 whole entry, looked up): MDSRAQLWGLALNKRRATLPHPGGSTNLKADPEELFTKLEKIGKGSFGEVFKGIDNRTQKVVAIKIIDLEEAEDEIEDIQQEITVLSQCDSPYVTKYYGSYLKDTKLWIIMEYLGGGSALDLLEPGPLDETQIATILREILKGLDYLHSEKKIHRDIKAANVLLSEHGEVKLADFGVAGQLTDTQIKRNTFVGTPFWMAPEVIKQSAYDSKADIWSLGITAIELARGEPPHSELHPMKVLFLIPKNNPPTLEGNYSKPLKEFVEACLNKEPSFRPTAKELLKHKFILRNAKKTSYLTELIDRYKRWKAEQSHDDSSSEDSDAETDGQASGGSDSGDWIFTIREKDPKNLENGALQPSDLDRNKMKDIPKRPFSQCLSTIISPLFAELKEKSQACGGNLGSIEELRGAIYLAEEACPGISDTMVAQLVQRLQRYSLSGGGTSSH
Chain of Vasopressin V1a receptor (Homo sapiens) (P37288 whole entry, looked up): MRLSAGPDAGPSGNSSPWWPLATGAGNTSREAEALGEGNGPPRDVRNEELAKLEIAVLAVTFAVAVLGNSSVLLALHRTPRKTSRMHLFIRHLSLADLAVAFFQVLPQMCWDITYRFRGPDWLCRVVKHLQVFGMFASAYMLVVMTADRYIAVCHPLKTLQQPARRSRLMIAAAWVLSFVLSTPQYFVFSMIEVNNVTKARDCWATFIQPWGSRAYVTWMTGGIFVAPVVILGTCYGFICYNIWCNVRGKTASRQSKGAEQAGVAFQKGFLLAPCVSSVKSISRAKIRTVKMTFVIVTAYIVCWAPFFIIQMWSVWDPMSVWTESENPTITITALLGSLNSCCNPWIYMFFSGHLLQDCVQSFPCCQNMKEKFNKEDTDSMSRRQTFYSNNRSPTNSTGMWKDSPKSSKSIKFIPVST

Consider `Cc1ccc(-c2ccc3c(ccc4sc5c(c43)NC[C@@H](C)NC5=O)n2)cn1`, for which the % of inhibition in [1] turned out to be 37%.

Consider `C=CC(=O)Nc1cccc(C(=O)Nc2ccc(Nc3cc(-c4[nH]c(SC)nc4C)ccn3)cc2)c1`, for which the % of control in assay [2] (at 1 µM) turned out to be 81%; in assay [2] (at 5 µM) it was 55%.

`CN(C)C/C=C/C(=O)Nc1ccc(C(=O)N2CCCC(Nc3ncc(Cl)c(-c4c[nH]c5ccccc45)n3)C2)cc1` (configuration not stated) registered a % of control in assay [3] of 94%.

In the case of `Nc1cnc(N2CCc3cc(S(=O)(=O)Nc4c(F)cc(Cl)cc4F)cc(N4CCCC4=O)c32)nc1` [TP-020n], the values for the % of control in assay [4] and in [5] were 100% and 96%, respectively.

For `COc1cc(Nc2nc(C)cc(-c3cnn4nc(OC)ccc34)n2)cc(C(F)(F)F)c1`, in assay [6], the % of control came to 89%.

Compound `CN(C)CCOc1ccc(-c2nc(-c3ccncc3)c(-c3ccc4c(c3)CC/C4=N\O)[nH]2)cc1` registered a % of control in assay [7] of 100%.

The compound `COc1cc(C(=O)N2CC[C@@H](O)[C@@H](N)C2)cc2nc(-c3cc4ccccc4n3CC3CC3)n(C)c12` came in with a pXC50 in assay [8] of 4.6 M.

Take `Cn1cc(-n2cnc3c(NCc4nc5cc(Cl)c(Cl)cc5[nH]4)nc(N4CCOCC4)nc32)cn1`: the % of inhibition in assay [9] was -1.88%.

For the compound `CNC(=O)Nc1ccc(-c2nc(N3CC4CCC(C3)O4)c3cnn(C4CCC5(CC4)OCCO5)c3n2)cc1`, the % of inhibition in assay [10] was -1%. Further, in assay [11], the % of control worked out at 50%.

`CC[C@@H]1[C@H](F)C(=O)N[C@@H]1COc1nccc2cc(C(N)=O)c(OC)cc12` [ZIMLOVISERTIB]: the % of inhibition in assay [12] is -11.2%; in assay [13], 19.6%.

For the compound `CCc1cccc(CC)c1NC(=O)c1nn(C)c2c1CCc1cnc(Nc3ccc(C(=O)NC4CCN(C)CC4)cc3OC(F)(F)F)nc1-2`, the half-inhibitory concentration (IC50) in assay [14] was greater than 10 µM.

`CN(C)CCCOc1ccc(-c2cc(NCCCn3cccn3)nc(S(C)(=O)=O)n2)cc1`: the dTM in assay [15] was less than 2 K.

Compound `N#Cc1cccc(-c2c[nH]c3ncnc(N4CCOCC4)c23)c1` registered a % of control in assay [16] of 79%.
